The record followed here is ChEMBL document CHEMBL5465560, “Selectivity Literature for EUbOPEN Chemogenomic Library” (2024).

Test [1] deals with T1, Cyclin-dependent kinase 11A (Homo sapiens) (UniProt Q9UQ88).
T1 sequence (whole entry): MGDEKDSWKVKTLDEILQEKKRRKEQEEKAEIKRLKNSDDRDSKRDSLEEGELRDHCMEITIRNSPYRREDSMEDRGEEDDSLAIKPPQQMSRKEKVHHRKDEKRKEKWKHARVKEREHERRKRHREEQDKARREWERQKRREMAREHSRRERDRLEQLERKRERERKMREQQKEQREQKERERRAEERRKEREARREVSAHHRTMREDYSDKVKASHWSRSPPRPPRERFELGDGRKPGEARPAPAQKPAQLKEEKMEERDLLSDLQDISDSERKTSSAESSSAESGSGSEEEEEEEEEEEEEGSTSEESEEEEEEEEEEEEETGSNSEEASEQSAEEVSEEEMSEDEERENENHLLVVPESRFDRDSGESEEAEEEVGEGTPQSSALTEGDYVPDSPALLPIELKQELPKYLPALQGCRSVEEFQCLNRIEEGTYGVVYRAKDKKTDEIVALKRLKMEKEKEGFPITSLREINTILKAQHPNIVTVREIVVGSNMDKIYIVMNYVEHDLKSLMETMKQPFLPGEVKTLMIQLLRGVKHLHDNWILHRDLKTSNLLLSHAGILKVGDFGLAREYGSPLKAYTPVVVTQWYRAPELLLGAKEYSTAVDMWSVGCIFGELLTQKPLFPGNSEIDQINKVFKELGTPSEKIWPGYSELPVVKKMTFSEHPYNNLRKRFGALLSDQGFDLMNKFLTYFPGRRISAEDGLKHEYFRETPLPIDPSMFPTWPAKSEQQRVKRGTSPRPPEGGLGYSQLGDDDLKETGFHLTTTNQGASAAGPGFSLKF
Description: Selectivity interaction (Ambit KINOMEscan and KiNATiv profiling in Jurkat cells) EUB0000090b CDK11A. In kind it is cell-based. The following applies: at 1 µM.

Test [2] addresses Fibroblast growth factor receptor 2 (Homo sapiens) (UniProt P21802). In words: Selectivity interaction (KinomeScan (DiscoverX)) EUB0000229b FGFR2. The following applies: at 10 µM.
Test [3] addresses Homeodomain-interacting protein kinase 2 (Homo sapiens, UniProt Q9H2X6). In words: Selectivity interaction (KinomeScan (DiscoverX)) EUB0000229b HIPK2. The following applies: at 10 µM.
The target in test [4] is T1, Cyclin-dependent kinase 11A (Homo sapiens). Description: Selectivity interaction (ActivX KiNativ screen (kinase selectivity in THP-1 cell lysates)) EUB0000639a CDK11A. In kind it is subcellular. The following applies: lysate, at 1 µM.
Test [5] addresses T2, Cyclin-G-associated kinase (Homo sapiens) (UniProt O14976).
T2 sequence (whole entry): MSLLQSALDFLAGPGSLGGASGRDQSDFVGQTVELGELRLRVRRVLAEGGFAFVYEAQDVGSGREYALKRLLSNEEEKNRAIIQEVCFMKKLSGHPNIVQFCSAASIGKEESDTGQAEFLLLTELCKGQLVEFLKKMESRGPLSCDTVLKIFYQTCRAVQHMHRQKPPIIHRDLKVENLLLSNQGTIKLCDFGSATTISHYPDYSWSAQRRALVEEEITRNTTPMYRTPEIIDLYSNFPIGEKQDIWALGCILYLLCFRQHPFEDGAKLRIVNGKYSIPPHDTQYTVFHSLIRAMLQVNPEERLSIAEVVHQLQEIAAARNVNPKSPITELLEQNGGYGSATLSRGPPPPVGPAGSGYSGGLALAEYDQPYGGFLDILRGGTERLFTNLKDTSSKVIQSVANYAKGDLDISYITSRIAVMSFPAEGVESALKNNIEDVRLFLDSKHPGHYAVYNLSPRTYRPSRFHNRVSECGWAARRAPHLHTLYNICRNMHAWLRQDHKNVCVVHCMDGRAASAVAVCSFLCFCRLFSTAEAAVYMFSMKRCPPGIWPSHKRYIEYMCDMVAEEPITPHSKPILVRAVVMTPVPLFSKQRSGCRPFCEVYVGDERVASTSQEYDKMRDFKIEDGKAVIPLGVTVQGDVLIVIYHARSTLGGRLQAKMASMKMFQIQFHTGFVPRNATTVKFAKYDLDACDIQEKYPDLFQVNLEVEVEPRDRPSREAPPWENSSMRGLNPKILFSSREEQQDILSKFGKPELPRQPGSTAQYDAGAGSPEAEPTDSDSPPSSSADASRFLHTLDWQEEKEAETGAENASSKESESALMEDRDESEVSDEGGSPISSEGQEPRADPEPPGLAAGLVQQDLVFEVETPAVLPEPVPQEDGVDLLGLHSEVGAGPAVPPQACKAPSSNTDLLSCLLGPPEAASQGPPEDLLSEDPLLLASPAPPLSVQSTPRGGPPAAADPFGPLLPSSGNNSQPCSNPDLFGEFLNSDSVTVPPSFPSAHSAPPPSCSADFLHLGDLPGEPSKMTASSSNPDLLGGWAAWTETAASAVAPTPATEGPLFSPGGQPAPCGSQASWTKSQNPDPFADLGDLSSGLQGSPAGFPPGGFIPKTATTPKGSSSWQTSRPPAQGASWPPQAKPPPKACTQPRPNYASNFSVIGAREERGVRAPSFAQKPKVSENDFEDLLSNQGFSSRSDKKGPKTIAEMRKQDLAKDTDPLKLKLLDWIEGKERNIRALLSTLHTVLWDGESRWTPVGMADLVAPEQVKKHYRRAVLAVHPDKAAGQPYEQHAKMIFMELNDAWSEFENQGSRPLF
In words: Selectivity interaction (KinomeScan (DiscoverX)) EUB0000695a GAK. To be noted: at 100 nM.

For test [6], the target named is Serine/threonine-protein kinase N1 (Homo sapiens, UniProt Q16512). Description: Selectivity interaction (KinomeScan (DiscoverX)) EUB0000092b PKN1. The following applies: at 10 µM.
Sequence of Serine/threonine-protein kinase N1 (Q16512 2-942 limits assumed): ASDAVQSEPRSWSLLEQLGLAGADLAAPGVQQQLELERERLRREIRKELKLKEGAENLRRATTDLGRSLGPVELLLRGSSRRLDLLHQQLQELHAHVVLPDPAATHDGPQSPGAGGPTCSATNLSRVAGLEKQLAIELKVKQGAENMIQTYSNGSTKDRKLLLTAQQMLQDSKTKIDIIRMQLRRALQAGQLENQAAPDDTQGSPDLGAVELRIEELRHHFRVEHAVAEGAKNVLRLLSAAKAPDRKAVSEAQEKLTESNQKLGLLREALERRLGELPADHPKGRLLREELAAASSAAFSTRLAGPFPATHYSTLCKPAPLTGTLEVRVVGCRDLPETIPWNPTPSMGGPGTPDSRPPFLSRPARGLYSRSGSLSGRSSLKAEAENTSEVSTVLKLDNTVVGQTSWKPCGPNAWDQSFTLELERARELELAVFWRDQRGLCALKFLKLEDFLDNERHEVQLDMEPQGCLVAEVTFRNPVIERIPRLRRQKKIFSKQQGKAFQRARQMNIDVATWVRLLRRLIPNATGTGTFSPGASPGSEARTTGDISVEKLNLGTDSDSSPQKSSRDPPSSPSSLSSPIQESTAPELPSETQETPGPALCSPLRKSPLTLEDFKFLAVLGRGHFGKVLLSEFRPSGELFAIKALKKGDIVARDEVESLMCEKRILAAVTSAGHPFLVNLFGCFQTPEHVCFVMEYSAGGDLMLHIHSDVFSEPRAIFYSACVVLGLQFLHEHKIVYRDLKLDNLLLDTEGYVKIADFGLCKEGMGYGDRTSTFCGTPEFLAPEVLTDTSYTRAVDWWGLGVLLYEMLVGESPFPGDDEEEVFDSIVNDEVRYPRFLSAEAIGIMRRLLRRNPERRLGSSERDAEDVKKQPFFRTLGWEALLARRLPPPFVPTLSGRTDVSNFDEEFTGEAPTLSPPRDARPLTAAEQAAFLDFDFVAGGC
For test [7], the target named is T3, Phosphatidylinositol 5-phosphate 4-kinase type-2 gamma (Homo sapiens) (UniProt Q8TBX8).
T3 sequence (whole entry): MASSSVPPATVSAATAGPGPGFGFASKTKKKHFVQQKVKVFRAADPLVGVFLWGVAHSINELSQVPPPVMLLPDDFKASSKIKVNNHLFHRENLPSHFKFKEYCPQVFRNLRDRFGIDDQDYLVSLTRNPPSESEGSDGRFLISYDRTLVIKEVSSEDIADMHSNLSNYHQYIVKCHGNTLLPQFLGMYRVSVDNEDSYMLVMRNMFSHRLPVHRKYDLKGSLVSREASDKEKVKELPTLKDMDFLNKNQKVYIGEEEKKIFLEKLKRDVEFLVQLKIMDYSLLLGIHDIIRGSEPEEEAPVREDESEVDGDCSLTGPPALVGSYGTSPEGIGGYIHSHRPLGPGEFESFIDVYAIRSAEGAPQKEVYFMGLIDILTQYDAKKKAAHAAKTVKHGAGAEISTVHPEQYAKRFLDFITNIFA
Description: Selectivity interaction (KinomeScan (DiscoverX)) EUB0000045b PIP4K2C.

Sequence of Homeodomain-interacting protein kinase 2 (Q9H2X6 whole entry, looked up): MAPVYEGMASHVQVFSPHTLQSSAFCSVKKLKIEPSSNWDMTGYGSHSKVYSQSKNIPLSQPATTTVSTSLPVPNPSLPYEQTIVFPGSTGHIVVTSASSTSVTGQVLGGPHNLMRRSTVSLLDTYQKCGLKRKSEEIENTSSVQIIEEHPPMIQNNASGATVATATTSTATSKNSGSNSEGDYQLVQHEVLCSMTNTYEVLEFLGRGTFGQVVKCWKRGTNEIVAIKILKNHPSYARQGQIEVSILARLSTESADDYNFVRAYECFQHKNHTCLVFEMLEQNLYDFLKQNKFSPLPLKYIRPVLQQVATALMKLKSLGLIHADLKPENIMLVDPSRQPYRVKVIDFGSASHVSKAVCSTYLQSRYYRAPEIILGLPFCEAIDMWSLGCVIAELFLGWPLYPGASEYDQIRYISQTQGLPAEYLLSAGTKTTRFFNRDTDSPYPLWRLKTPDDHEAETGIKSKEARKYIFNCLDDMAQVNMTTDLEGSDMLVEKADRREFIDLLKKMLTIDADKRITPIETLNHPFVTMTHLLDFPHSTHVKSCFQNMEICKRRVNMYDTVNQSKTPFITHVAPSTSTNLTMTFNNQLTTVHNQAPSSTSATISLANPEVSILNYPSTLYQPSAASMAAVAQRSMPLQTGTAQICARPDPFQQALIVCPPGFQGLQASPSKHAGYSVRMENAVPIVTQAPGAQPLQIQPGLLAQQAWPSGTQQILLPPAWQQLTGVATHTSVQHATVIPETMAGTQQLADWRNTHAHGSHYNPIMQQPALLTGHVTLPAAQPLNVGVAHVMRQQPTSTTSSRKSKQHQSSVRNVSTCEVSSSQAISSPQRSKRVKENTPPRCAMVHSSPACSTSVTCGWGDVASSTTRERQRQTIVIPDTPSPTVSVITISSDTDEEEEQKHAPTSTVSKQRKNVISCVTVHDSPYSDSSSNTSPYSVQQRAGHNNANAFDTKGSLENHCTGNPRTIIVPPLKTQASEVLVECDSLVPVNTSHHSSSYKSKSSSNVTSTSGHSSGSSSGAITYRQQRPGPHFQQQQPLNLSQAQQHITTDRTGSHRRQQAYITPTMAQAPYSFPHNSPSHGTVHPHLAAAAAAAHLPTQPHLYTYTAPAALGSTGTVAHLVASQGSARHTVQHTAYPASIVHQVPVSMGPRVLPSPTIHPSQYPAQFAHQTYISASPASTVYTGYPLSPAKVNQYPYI
Sequence of Fibroblast growth factor receptor 2 (Homo sapiens) (P21802 22-821 limits assumed): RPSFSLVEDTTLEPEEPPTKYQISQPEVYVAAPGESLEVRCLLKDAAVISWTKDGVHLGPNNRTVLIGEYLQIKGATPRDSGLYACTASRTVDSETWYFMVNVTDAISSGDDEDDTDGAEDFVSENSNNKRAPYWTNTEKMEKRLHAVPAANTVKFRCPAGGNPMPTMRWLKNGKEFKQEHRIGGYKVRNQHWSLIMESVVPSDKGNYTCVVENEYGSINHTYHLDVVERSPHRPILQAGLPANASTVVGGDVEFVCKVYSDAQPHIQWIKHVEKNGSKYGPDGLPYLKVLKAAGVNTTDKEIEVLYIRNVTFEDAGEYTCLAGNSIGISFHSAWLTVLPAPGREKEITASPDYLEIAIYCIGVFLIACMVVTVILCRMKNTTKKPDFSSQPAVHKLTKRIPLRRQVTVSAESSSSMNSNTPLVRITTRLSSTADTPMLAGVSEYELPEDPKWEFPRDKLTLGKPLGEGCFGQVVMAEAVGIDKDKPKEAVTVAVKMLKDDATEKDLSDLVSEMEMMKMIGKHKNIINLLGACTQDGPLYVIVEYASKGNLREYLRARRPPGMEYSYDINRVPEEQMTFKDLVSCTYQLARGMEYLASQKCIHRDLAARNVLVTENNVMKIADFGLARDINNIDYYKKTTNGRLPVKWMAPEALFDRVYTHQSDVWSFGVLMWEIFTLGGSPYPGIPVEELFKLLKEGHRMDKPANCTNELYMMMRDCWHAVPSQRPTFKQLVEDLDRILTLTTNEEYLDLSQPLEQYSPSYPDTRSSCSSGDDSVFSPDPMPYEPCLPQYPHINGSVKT

Turning to `CN(C)C/C=C/C(=O)Nc1ccc(C(=O)N2CCCC(Nc3ncc(Cl)c(-c4c[nH]c5ccccc45)n3)C2)cc1` (stereo not drawn), the % of control in test [1] came out at 100%.
Consider `COc1cc(N(C)c2ccnc3ccc(C(F)(F)F)cc23)cc(OC)c1OC`, for which the % binding in test [2] and in test [3] was 100% throughout.
On to `CC[C@@H]1[C@H](F)C(=O)N[C@@H]1COc1nccc2cc(C(N)=O)c(OC)cc12` [ZIMLOVISERTIB], for which the % of inhibition in test [4] stood at 6.7%.
Regarding `Cc1cc(F)c(C(=O)Nc2cccc(-c3nncn3C(C)C)n2)cc1-n1cnc(C2CC2)c1`, in test [5], the % of control was found to be 88%.
In test [6], `CCC(=O)N1CCN(c2ccc(-n3c(=O)ccc4cnc5ccc(-c6cnc7ccccc7c6)cc5c43)cc2C(F)(F)F)CC1` displayed a % of control of 92%.
Take `C=CC(=O)Nc1cc(-n2c(=O)ccc3cnc4ccc(-c5ccc(NS(C)(=O)=O)cc5)cc4c32)ccc1C`: the % of control in test [7] (at 1 µM) was 5.6%; in test [7] (at 10 µM), 3.9%.
